# Laboratory results taken from patent US11833229B2, “Labeling precursors with squaric acid coupling” (SCV—SpezialChemikalienVertrieb GmbH, priority 2019, dated 2023).
# Tests used:
# [1] = Stability of [44Sc]Sc-AAZTA.QS.PSMA; type: in vitro ADME; settings: over a period of 24 hours
# Description: Similar to DATA, the AAZTA chelator can also be labeled with radio nuclides such as ^44Sc and ^68Ga under mild conditions. In the instant example, the radioisotope ^44Sc is used and the properties of the radiotracer [^44Sc]Sc-AAZTA.QS.PSMA are investigated. The synthesis shown in FIG. 44 was readily carried out with high yield. […] The stability of [^44Sc]Sc-AAZTA.QS.PSMA exceeds 95% over a period of 24 hours (FIG. 46).
# [2] = system: LNCap tumor; test: Ex vivo activities of [44Sc]Sc-AAZTA.QS.PSMA with and without 2-PMPA blocking; type: in vivo, mice; settings: for Ex vivo activity kindneys: kidneys
# Description: The radiotracer [^44Sc]Sc-AAZTA.QS.PSMA was further examined in vivo in three mice, each carrying an LNCap tumor. In addition blocking tests were carried out on one of the mice. […] The same applies to the kidneys.
compound,measurement,setting,value
O=C(O)CCC(NC(=O)NC(CCCCNc1c(NCCNC(=O)CCCCC2(N(CC(=O)O)CC(=O)O)CN(CC(=O)O)CCN(CC(=O)O)C2)c(=O)c1=O)C(=O)O)C(=O)O.[44Sc+3] (stereo not shown) [^44Sc.AAZTA.QS.KuE],stability,[1],exceeds 95%
same,Ex vivo activity LN,[2]; Block (+PMPA),0.39 % ID/g
same,Ex vivo activity LN,"[2]; mouse (1), no blocking",1.33 % ID/g
same,Ex vivo activity LN,"[2]; mouse (2), no blocking",0.38 % ID/g
same,Ex vivo activity blood,[2]; Block (+PMPA),0.34 % ID/g
same,Ex vivo activity blood,"[2]; mouse (1), no blocking",0.96 % ID/g
same,Ex vivo activity blood,"[2]; mouse (2), no blocking",0.41 % ID/g
same,Ex vivo activity bone,[2]; Block (+PMPA),0.10 % ID/g
same,Ex vivo activity bone,"[2]; mouse (1), no blocking",0.46 % ID/g
same,Ex vivo activity bone,"[2]; mouse (2), no blocking",0.29 % ID/g
same,Ex vivo activity heart,[2]; Block (+PMPA),0.11 % ID/g
same,Ex vivo activity heart,"[2]; mouse (1), no blocking",0.41 % ID/g
same,Ex vivo activity heart,"[2]; mouse (2), no blocking",0.14 % ID/g
same,Ex vivo activity kindneys,[2]; Block (+PMPA),7.97 % ID/g
same,Ex vivo activity kindneys,"[2]; mouse (1), no blocking",119.86 % ID/g
same,Ex vivo activity kindneys,"[2]; mouse (2), no blocking",42.76 % ID/g
same,Ex vivo activity liver,[2]; Block (+PMPA),0.16 % ID/g
same,Ex vivo activity liver,"[2]; mouse (1), no blocking",0.42 % ID/g
same,Ex vivo activity liver,"[2]; mouse (2), no blocking",0.16 % ID/g
same,Ex vivo activity lung,[2]; Block (+PMPA),0.06 % ID/g
same,Ex vivo activity lung,"[2]; mouse (1), no blocking",1.31 % ID/g
same,Ex vivo activity lung,"[2]; mouse (2), no blocking",0.59 % ID/g
same,Ex vivo activity muscle,[2]; Block (+PMPA),0.05 % ID/g
same,Ex vivo activity muscle,"[2]; mouse (1), no blocking",0.38 % ID/g
same,Ex vivo activity muscle,"[2]; mouse (2), no blocking",0.13 % ID/g
same,Ex vivo activity salivary glands,[2]; Block (+PMPA),0.11 % ID/g
same,Ex vivo activity salivary glands,"[2]; mouse (1), no blocking",0.51 % ID/g
same,Ex vivo activity salivary glands,"[2]; mouse (2), no blocking",0.18 % ID/g
same,Ex vivo activity small intestine,[2]; Block (+PMPA),0.35 % ID/g
same,Ex vivo activity small intestine,"[2]; mouse (1), no blocking",0.62 % ID/g
same,Ex vivo activity small intestine,"[2]; mouse (2), no blocking",0.22 % ID/g
same,Ex vivo activity spleen,[2]; Block (+PMPA),0.15 % ID/g
same,Ex vivo activity spleen,"[2]; mouse (1), no blocking",6.19 % ID/g
same,Ex vivo activity spleen,"[2]; mouse (2), no blocking",1.15 % ID/g
same,Ex vivo activity tumor,[2]; Block (+PMPA),0.53 % ID/g
same,Ex vivo activity tumor,"[2]; mouse (1), no blocking",14.73 % ID/g
same,Ex vivo activity tumor,"[2]; mouse (2), no blocking",14.14 % ID/g
